Source: US20010053848A1, “Hetero-oligomeric G protein-coupled receptors as novel drug targets” (priority 2000, published 2001)
Like-named read-outs stand apart in the source and are kept apart here. Marks after values point to notes of the source that are not given here.

What was measured:
[1] = target: HA-SSTR5 and D2R hetero-oligomer (Homo sapiens, UniProt P14416+P35346); assay: pbFRET microscopy, CHO-K1 cells co-expressing HA-SSTR5 and D2R; assay type: cell-based
Description: Generally, FRET efficiencies are determined indirectly by measuring changes in the quantum yield of any competitive donor deactivation process upon introduction of an acceptor molecule. Donor photobleaching represents such a competitive process which is exploited in pbFRET-microscopy. The effective FRET efficiency E is calculated from the photobleaching time constants of the donor obtained in the absence (τD−A) and presence (τD+A) of acceptor according to: [formula]
CHO-K1 cells, stably cotransfected with HA-hSSTR5 and D2R, were grown on glass coverslips for 24 hours, treated with various agonists/antagonists for 30 minutes at 37° C., washed and fixed in 1% paraformaldehyde for 30 minutes on ice. […] Coverslips were mounted on microscope slides and used for pbFRET-microscopy the day after.
pbFRET experiments were performed on a Leica DMLB fluorescence microscope equipped with epi-illumination. An OSRAM HBO 100 W Hg lamp was used as excitation light source and the objective was a Leica pl-fluotar 40× oil immersion lens. […] For each cell, a sequence of 20 images was acquired during donor-photobleaching. One image was collected every 4 s with exposure time of 1 s. Exposure as well as time delays were software controlled.
Images were corrected for dark current, background and flatness. For analysis of the photobleaching decay, only the high-intensity plasma membrane region was considered, low intensity background and intracellular regions were masked.
HA-hSSTR5 and D2R were specifically labeled with FITC (donor) and rhodamine (acceptor), respectively using mouse monoclonal antibody against HA and rabbit polyclonal anti-D2R antibody, followed by reaction with FITC conjugated goat anti-mouse and rhodamine conjugated goat anti-rabbit secondary antibody. […] FIG. 4A Left panel: HA-SSTR5 (visualized with mouse anti-HA mAb and FITC-conjugated goat anti-mouse IgG). FIG. 4A Middle panel: D2R (rabbit polyclonal antibody and rhodamine-conjugated goat anti-rabbit IgG). […] Magnification: ×630.
The decrease in donor fluorescence intensity due to photobleaching during prolonged exposure to excitation light was monitored in the absence (FIG. 4B, I-III) or presence (FIG. 4B, IV-VI) of acceptor, i.e. in the potential presence of an additional donor deactivation process, FRET. Cells were reacted with primary antibodies and either with FITC-conjugated goat-anti-mouse IgG (donor in the absence of acceptor) (I-III), or with both FITC-conjugated goat-anti-mouse and rhodamine-conjugated goat-anti-rabbit IgG (donor in the presence of acceptor) (IV-VI). FIG. 4B I. Photobleaching of donor in the absence of acceptor (only selection of images shown). For analysis of the photobleaching decay, only the high-intensity membrane region was considered, low intensity background and intracellular regions were masked (black). […] FIG. 4B II. The average fluorescence intensity of each image was plotted versus the time that the cell had been exposed to excitation light. […] FIG. 4B III. The decrease of fluorescence intensity was analysed for each pixel of the unmasked region and fitted to a single-exponential decay. The resulting time constants were plotted in the histogram shown. […] Photobleaching of donor in the presence of acceptor. […] FIG. 4B, IV-VI.
The photobleaching decay was analyzed for the plasma membrane regions, both on a pixel-by-pixel basis (FIG. 4, III & VI) as well as averaged over each image (FIG. 4, II & V).

[2] = target: T1, delta318 SSTR5-D2R putative hetero-oligomers (Homo sapiens, UniProt P14416+P35346, DEL319-364); assay: cell-based; details: for effect on SST inhibition of forskolin-stimulated cAMP: pertussis toxin 100 ng/ml pretreatment 2 h, sulpiride 10^−4 M
T1 construct: expressed in transfected cells
T1 sequence (P14416 whole entry, stated change not applied): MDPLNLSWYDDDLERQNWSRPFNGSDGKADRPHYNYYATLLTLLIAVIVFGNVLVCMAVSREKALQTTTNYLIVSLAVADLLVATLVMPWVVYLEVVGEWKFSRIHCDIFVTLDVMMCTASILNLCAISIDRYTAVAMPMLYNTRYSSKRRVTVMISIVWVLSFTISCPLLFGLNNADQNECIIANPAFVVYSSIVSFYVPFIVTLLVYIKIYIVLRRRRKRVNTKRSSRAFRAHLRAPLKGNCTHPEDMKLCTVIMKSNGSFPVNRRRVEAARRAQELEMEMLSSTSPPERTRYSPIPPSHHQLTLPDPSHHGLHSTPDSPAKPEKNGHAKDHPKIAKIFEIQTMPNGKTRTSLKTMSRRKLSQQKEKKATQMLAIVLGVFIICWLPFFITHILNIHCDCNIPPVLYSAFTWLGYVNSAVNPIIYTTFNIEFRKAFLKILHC
T1 sequence (P35346 1-318, stated change not applied): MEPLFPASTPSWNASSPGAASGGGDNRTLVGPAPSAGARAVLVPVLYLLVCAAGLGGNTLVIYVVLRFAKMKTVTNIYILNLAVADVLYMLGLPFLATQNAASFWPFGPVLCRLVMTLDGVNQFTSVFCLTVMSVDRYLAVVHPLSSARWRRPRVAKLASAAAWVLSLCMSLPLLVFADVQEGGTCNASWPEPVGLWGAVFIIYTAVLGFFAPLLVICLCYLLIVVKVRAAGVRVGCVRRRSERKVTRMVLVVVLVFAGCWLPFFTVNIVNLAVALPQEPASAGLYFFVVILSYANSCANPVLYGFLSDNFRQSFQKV

wild type hSSTR5 and DOR = wild type hSSTR5 and DOR (Homo sapiens, UniProt P35346+P41143); details: for effect on inhibition of radioligand binding induced by GTPγS: [125I] LTT SST-28 radioligand
wild type hSSTR5 and DOR, sequence (P35346 whole entry): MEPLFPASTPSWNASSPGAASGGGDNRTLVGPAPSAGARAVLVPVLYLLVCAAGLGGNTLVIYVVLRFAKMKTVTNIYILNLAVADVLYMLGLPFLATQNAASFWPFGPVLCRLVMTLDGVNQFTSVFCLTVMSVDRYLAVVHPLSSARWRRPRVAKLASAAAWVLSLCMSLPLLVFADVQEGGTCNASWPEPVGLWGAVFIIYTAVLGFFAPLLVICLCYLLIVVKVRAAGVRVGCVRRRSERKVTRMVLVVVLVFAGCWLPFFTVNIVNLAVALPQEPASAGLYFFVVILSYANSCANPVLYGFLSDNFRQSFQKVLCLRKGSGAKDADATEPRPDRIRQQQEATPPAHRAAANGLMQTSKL
wild type hSSTR5 and DOR, sequence (P41143 whole entry): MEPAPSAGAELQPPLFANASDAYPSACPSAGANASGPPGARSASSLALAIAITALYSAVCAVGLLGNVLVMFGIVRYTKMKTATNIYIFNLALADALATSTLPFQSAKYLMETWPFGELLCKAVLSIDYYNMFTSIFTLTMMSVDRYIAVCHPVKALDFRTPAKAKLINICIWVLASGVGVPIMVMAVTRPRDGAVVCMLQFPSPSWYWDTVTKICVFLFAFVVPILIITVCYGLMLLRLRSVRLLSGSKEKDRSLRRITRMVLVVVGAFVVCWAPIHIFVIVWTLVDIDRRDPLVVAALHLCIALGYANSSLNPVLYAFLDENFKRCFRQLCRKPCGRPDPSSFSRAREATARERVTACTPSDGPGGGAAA
Description: LTT SST-28 binding by the cotransfectants. In order to characterize G protein function, wild type hSSTR5 and DOR were stably coexpressed in CHO-K1 cells.

HA-SSTR5 and D2R = HA-SSTR5 and D2R (Homo sapiens, UniProt P14416+P35346); details: GTPγS 10^−4M, 30 min at 37° C.
HA-SSTR5 and D2R, sequence (P35346 whole entry): as the sequence (P35346 whole entry) above
HA-SSTR5 and D2R, sequence (P14416 whole entry): as the sequence (P14416 whole entry, stated change not applied) above

[3] = target: T2, delta C-tail hSSTR5 with DOR (Homo sapiens, UniProt P35346+P41143, DEL319-364); assay: Inhibition of forskolin-stimulated cAMP, delta C-tail hSSTR5 co-expressed with DOR in CHO-K1 cells; assay type: cell-based; details: naltrindole (10^−5 M)
T2 construct: expressed in transfected cells
T2 sequence (P35346 1-318 limits assumed, stated change not applied): as the sequence (P35346 1-318, stated change not applied) above
T2 sequence (P41143 whole entry, stated change not applied): as the sequence (P41143 whole entry) above

[4] = target: T3, DOR and SSTR5 hetero-oligomer (Homo sapiens, UniProt P35346+P41143); assay: Inhibition of FSK-stimulated cAMP, hSSTR5/DOR cotransfectants; assay type: cell-based; details: SST-14 plus naltrindole
T3 construct: expressed in transfected cells
T3 sequence (P35346 whole entry): as the sequence (P35346 whole entry) above
T3 sequence (P41143 whole entry): as the sequence (P41143 whole entry) above

[5] = intrathecal or epidural; post-operative and neoplastic pain; cited from earlier work
[6] = i.c.v. in monkeys; cited from earlier work

HA-SSTR5 and D2R hetero-oligomer, sequence (P35346 whole entry): as the sequence (P35346 whole entry) above
HA-SSTR5 and D2R hetero-oligomer, sequence (P14416 whole entry): as the sequence (P14416 whole entry, stated change not applied) above

Compound: NCCc1ccc(O)c(O)c1 [DA, dopamine]
- E[%] average effective FRET-efficiency [1]: 16±2%
- τavg[S] mean photobleaching time constant, D + A [1]: D + A: 21.3 ± 0.3 S
- τavg[S] mean photobleaching time constant, D − A [1]: D − A: 17.9 ± 0.3 S
- inhibition at 1 µM ([2]; CHO-K1, read-out: maximum inhibition of forskolin-stimulated cAMP): 30 ± 1.7%

Compound: C[C@@H](NC(=O)[C@@H](N)Cc1ccc(O)cc1)C(=O)NCC(=O)N(C)[C@@H](Cc1ccccc1)C(=O)NCCO [DAMGO, [D-Ala^2, N-MePhe^4, Gly-ol^5]-Enkephalin]
- effect on inhibition of radioligand binding induced by GTPγS (wild type hSSTR5 and DOR): without effect

Compound: Nc1nc2c(ncn2[C@@H]2O[C@H](COP(=O)(O)OP(=O)(O)OP(O)(O)=S)[C@@H](O)[C@H]2O)c(=O)[nH]1 [GTPγS]
- decrease in specific radioligand binding (HA-SSTR5 and D2R): 41±3%

Compound: CCc1cc(Cl)c(OC)c(C(=O)NC[C@@H]2CCCN2CC)c1O [eticlopride]
- E[%] average effective FRET-efficiency [1]: 3±3%
- τavg[S] mean photobleaching time constant, D + A [1]: D + A: 19.4 ± 0.4 S
- τavg[S] mean photobleaching time constant, D − A [1]: D − A: 18.9 ± 0.3*^) S

Compound: Oc1ccc2c3c1O[C@H]1c4[nH]c5ccccc5c4C[C@@]4(O)[C@@H](C2)N(CC2CC2)CC[C@]314 [naltrindole]
- effect on SST-14 inhibition of FSK-stimulated cAMP [3]: abolished
- effect on inhibition of radioligand binding induced by GTPγS (wild type hSSTR5 and DOR): reversed
- G-protein coupling efficiency (wild type hSSTR5 and DOR; enhancement by DOR ligand): reduced coupling
- SST-14 induced cAMP inhibition in the presence of the ligand [4]: 20±4%

Compound: C[C@@H](O)[C@@H]1NC(=O)[C@H](CCCCN)NC(=O)[C@@H](Cc2c[nH]c3ccccc23)NC(=O)[C@H](Cc2ccccc2)NC(=O)[C@@H](NC(=O)[C@H](N)Cc2ccccc2)CSSC[C@@H](C(=O)N[C@H](CO)[C@@H](C)O)NC1=O [octreotide]
- analgesic effect [5]: powerful analgesic effects
- neurobehavioral effect [6]: Parkinsonian syndrome

Compound: CCN1CCCC1CNC(=O)c1cc(S(N)(=O)=O)ccc1OC (stereo not shown) [sulpiride]
- τavg[S] mean photobleaching time constant, D − A ([1]; donor in absence of acceptor, ± SEM): D − A: 17.9 ± 0.3 S
- τavg[S] mean photobleaching time constant, D + A ([1]; donor in presence of acceptor, ± SEM): D + A: 19.2 ± 0.3 S
- effect on SST inhibition of forskolin-stimulated cAMP [2]: completely abolished

Compound: pertussis toxin
- effect on SST inhibition of forskolin-stimulated cAMP [2]: completely abolished
